Measurements taken from patent publication US20260355361A1, “METHODS FOR DIAGNOSIS AND TREATMENT OF PULMONARY HYPERTENSION” (THE METHODIST HOSPITAL, priority 2022, published 2026).

Target: VEGFr2 (Rattus norvegicus, UniProt O08775)
Assay: PET imaging of ^18F-ZD-G2 versus ^18FDG in MCT rat model of PAH
Assay type: in vivo
Details: early stage of PAH (MCT-10 days and MCT-2 weeks); PET at 60 minutes after injection
Description: Images of ^18F-ZD-G2 probe and ^18FDG were compared. Rats exposed to monocrotaline were used to develop pulmonary arterial hypertension rat model (MCT), while healthier rats were used as a control group.
Images of ^18F-ZD-G2 probe and ^18FDG were compared.
A PET imaging study was further performed with ^18F-ZD-G2 using MCT rat model as previous described. Healthy rats were used as control. Clinically used ^18FDG PET imaging was also performed on both groups of […] following the same imaging protocol for comparison.

Chain of VEGFr2 (O08775 20-1343): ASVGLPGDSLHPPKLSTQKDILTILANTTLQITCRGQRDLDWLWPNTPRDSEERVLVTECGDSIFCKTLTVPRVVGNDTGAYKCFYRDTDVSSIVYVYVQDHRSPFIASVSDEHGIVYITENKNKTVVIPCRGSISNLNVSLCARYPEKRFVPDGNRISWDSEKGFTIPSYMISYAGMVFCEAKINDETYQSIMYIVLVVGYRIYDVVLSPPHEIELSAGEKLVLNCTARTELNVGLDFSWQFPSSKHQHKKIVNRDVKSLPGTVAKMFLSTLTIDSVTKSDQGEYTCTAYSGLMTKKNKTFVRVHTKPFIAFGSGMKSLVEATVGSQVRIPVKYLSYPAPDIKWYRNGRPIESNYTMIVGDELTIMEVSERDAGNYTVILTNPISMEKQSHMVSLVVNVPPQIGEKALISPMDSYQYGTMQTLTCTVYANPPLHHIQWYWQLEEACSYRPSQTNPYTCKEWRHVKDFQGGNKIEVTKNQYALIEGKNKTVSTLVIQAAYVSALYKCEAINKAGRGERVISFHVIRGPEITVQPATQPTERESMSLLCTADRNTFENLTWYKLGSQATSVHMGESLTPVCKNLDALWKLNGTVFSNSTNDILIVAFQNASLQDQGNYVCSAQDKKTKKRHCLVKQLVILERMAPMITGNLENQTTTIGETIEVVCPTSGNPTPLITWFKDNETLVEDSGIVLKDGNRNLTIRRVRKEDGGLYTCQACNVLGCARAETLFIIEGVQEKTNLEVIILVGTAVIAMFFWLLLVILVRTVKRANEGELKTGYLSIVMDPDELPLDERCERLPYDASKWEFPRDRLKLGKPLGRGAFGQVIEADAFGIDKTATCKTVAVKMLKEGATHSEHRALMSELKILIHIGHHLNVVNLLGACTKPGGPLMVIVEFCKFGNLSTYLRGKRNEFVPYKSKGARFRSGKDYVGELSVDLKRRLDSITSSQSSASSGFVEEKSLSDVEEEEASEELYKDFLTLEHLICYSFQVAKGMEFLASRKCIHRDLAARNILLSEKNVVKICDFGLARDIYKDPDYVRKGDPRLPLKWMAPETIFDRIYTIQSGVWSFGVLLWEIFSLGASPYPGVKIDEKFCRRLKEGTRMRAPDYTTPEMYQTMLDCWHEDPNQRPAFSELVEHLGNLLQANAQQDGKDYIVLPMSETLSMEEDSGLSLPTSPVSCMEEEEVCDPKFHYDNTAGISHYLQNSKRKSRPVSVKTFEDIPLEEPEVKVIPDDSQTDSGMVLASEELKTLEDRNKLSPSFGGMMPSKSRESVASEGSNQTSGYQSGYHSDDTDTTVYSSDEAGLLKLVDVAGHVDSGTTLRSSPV

For `OC[C@H]1OC(O)[C@H]([18F])[C@@H](O)[C@@H]1O` (stereo partly shown) [^18FDG], the “Lung uptake, MCT versus control” value was “no obvious difference”.
